Earlier results in US20110123622A1, “OPHTHALMIC FORMULATION AND METHOD OF MANUFACTURE THEREOF” (Inotek Pharmaceuticals Corporation, priority 2009, published 2011).

System: human exhibiting elevated intraocular pressure as a result of OHT or POAG

For `O=[N+]([O-])OC[C@H]1O[C@@H](n2cnc3c(NC4CCCC4)ncnc32)[C@H](O)[C@@H]1O` [Compound A, ((2R,3S,4R,5R)-5-(6-(cyclopentylamino)-9H-purin-9-yl)-3,4-dihydroxytetrahydrofuran-2-yl)methyl nitrate], which “reduction in IOP, comparison of dose groups” value (350 mcg and 700 mcg treatment groups, HPβCD formulation) is on record?
Its value is “greatest reduction in IOP”.

What about the “IOP upon a single application” value (formulated 1:20 wt/wt in HPβCD, 2.5 to 700 micrograms per eye) of the same compound?
Its value is “statistically significant dose-related decrement in IOP”.
